Source: PubChem BioAssay AID1963868 (Molecular Pharmacology Branch, DTP, NCI, 2024)

Tested on: KRAS PDC tumor spheroids (HUVEC+MSC), viability
Assay: Anticancer human tumor 254851-301-R-J1-PDC patient-derived colon carcinoma cell line growth inhibition [KRAS2]
Conditions: for IC50: curve of first compound; for viability, T/C: stronger effect = lower value
How it was run: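 Combination screen of spheroid viability in tumor-cell co-cultures with endothelial (HUVEC) and mesenchymal stem cell stroma. Each agent was tested in half-log dilutions, topping at clinical Cmax or at 10 microM without a known Cmax.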

[1] = second compound 0.1 µM, first compound 0.000316 µM
[2] = second compound 0.1 µM, first compound 0.001 µM
[3] = second compound 0.1 µM, first compound 0.00316 µM
[4] = second compound 0.1 µM, first compound 0.01 µM
[5] = second compound 0.1 µM, first compound 0.0316 µM
[6] = second compound 0.316 µM, first compound 0.000316 µM
[7] = second compound 0.316 µM, first compound 0.001 µM
[8] = second compound 0.316 µM, first compound 0.00316 µM
[9] = second compound 0.316 µM, first compound 0.01 µM
[10] = second compound 0.316 µM, first compound 0.0316 µM
[11] = second compound 1 µM, first compound 0.000316 µM
[12] = second compound 1 µM, first compound 0.001 µM
[13] = second compound 1 µM, first compound 0.00316 µM
[14] = second compound 1 µM, first compound 0.01 µM
[15] = second compound 1 µM, first compound 0.0316 µM
[16] = second compound 3.16 µM, first compound 0.000316 µM
[17] = second compound 3.16 µM, first compound 0.001 µM
[18] = second compound 3.16 µM, first compound 0.00316 µM
[19] = second compound 3.16 µM, first compound 0.01 µM
[20] = second compound 3.16 µM, first compound 0.0316 µM
[21] = second compound 10 µM, first compound 0.000316 µM
[22] = second compound 10 µM, first compound 0.001 µM
[23] = second compound 10 µM, first compound 0.00316 µM
[24] = second compound 10 µM, first compound 0.01 µM
[25] = second compound 10 µM, first compound 0.0316 µM
[26] = second compound 0.1 µM, first compound 0.1 µM
[27] = second compound 0.316 µM, first compound 0.1 µM
[28] = second compound 1 µM, first compound 0.1 µM
[29] = second compound 3.16 µM, first compound 0.1 µM
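Note: spheroids exposed to compounds for seven days before readout.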
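Throughout, for viability, T/C: 100% = DMSO vehicle control luminescence of the spheroids.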

Compound | IC50 (second compound 0.1 µM) | IC50 (second compound 0.316 µM) | IC50 (second compound 1 µM) | IC50 (second compound 3.16 µM) | IC50 (second compound 10 µM) | viability, T/C [1] | viability, T/C [2] | viability, T/C [3] | viability, T/C [4] | viability, T/C [5] | viability, T/C [6] | viability, T/C [8] | viability, T/C [9] | viability, T/C [10] | viability, T/C [13] | viability, T/C [14] | viability, T/C [15] | viability, T/C [18] | viability, T/C [19] | viability, T/C [20] | other results
CC(=O)Nc1cccc(-n2c(=O)n(C3CC3)c(=O)c3c(Nc4ccc(I)cc4F)n(C)c(=O)c(C)c32)c1 + CC1OCC2(CCN(c3cnc(Sc4ccnc(N)c4Cl)c(N)n3)CC2)C1N | 4.15 nM | 3.45 nM | 2.18 nM | 0.975 nM | 0.395 nM | 100% | 85.7% | 63% | 10.8% | 2.77% | 82% | 53.8% | 5.84% | 2.66% | 38% | 3.61% | 1.88% | 4.29% | 2.24% | 1.57% | viability, T/C (second compound 0.1 µM, first compound 0.0001 µM): 92.1%; viability, T/C (second compound 0.316 µM, first compound 0.0001 µM): 98.7%; viability, T/C [7]: 87.3%; viability, T/C (second compound 1 µM, first compound 0.0001 µM): 80.7%; viability, T/C [11]: 79%; viability, T/C [12]: 75%; viability, T/C (second compound 3.16 µM, first compound 0.0001 µM): 66.2%; viability, T/C [16]: 74.4%; viability, T/C [17]: 49.4%; viability, T/C (second compound 10 µM, first compound 0.0001 µM): 69.1%; viability, T/C [21]: 59.7%; viability, T/C [22]: 9.76%; viability, T/C [23]: 2.21%; viability, T/C [24]: 1.43%; viability, T/C [25]: 1.76%
CCN1CCN(Cc2ccc(Nc3ncc(F)c(-c4cc(F)c5nc(C)n(C(C)C)c5c4)n3)nc2)CC1 + C=CC(=O)N1CCN(c2nc(OCC3CCCN3C)nc3c2CCN(c2cccc4cccc(C)c24)C3)CC1CC#N | 645 nM | 600 nM | 131 nM | 55.3 nM | – | – | – | 98.9% | 95.5% | 83.3% | – | 98% | 87.6% | 94.2% | 59.5% | 63.2% | 57.5% | 65.6% | 56.8% | 52.5% | IC50 (second compound 0.0316 µM): 605 nM; viability, T/C (second compound 0.0316 µM, first compound 0.00316 µM): 102%; viability, T/C (second compound 0.0316 µM, first compound 0.01 µM): 97.3%; viability, T/C (second compound 0.0316 µM, first compound 0.0316 µM): 90.8%; viability, T/C (second compound 0.0316 µM, first compound 0.1 µM): 78.1%; viability, T/C (second compound 0.0316 µM, first compound 0.316 µM): 64.4%; viability, T/C (second compound 0.0316 µM, first compound 1 µM): 39.2%; viability, T/C [26]: 71.5%; viability, T/C (second compound 0.1 µM, first compound 0.316 µM): 66.2%; viability, T/C (second compound 0.1 µM, first compound 1 µM): 40.6%; viability, T/C [27]: 77%; viability, T/C (second compound 0.316 µM, first compound 0.316 µM): 60.5%; viability, T/C (second compound 0.316 µM, first compound 1 µM): 42%; viability, T/C [28]: 49.7%; viability, T/C (second compound 1 µM, first compound 0.316 µM): 44.5%; viability, T/C (second compound 1 µM, first compound 1 µM): 34.6%; viability, T/C [29]: 43.4%; viability, T/C (second compound 3.16 µM, first compound 0.316 µM): 40.1%; viability, T/C (second compound 3.16 µM, first compound 1 µM): 16%
Cn1ncnc1[C@H]1c2n[nH]c(=O)c3cc(F)cc(c23)N[C@@H]1c1ccc(F)cc1 + CNCc1ccccc1-c1csc(C(C)Nc2nc(C)nc3cc(OC)c(OC)cc23)c1 | > 100 nM | > 100 nM | > 100 nM | > 100 nM | < 0.316 nM | 94.9% | 90.7% | 92.4% | 96.9% | 95.6% | 90.6% | 98.8% | 85.4% | 94.5% | 93.9% | 84% | 86.9% | 64.3% | 63.7% | 67.9% | viability, T/C [26]: 93.6%; viability, T/C [7]: 95.6%; viability, T/C [27]: 92.5%; viability, T/C [11]: 101%; viability, T/C [12]: 97.8%; viability, T/C [28]: 95.2%; viability, T/C [16]: 66.3%; viability, T/C [17]: 65%; viability, T/C [29]: 63.6%; viability, T/C [21]: 0.23%; viability, T/C [22]: 0.23%; viability, T/C [23]: 0.25%; viability, T/C [24]: 0.21%; viability, T/C [25]: 0.22%; viability, T/C (second compound 10 µM, first compound 0.1 µM): 0.23%
